We go through 66 compounds from PubChem BioAssay AID488810 (Sanford-Burnham Center for Chemical Genomics, 2010).

pIC50: −log10 of the molar value. “And” between values parts separate entries of the source, which are not always exact repeats. Identical values can stand only once. The source made the active and inactive calls.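 How the source made its calls: active means compounds with IC50 below 20 µM; inactive means the rest.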

For this test, the target named is Type-1 angiotensin II receptor (Homo sapiens) (UniProt P30556). The experiment in a line: AT1 receptor antagonists, beta-arrestin recruitment, SAR follow-up, selectivity assay for APJ antagonist project, cell-based, CHO-K1 PathHunter, luminescence (AID 488810).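 Further: agonist challenge with angiotensin II at 50 nM final near its EC80.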 The following applies: CHO-K1 AGTR1 PathHunter beta-arrestin, antagonist mode.
Chain of Type-1 angiotensin II receptor (Homo sapiens) (P30556 whole entry, looked up): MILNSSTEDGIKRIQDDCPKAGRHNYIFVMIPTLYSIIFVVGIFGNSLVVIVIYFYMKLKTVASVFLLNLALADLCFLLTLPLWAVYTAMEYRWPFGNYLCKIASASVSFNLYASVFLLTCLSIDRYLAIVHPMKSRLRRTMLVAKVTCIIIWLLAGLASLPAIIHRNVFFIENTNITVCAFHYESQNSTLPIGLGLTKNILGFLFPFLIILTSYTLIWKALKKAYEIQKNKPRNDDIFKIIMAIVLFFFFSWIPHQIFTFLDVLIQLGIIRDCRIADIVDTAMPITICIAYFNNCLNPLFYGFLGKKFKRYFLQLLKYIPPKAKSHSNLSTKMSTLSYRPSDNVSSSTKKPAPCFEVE
Consider `Cn1c(=O)c(C(=S)NC(=O)C2CC2)c(N)n(Cc2ccccc2)c1=O`, for which the IC50 result is “inactive”.

Take `COc1ccc(NC2C(=O)Nc3ccccc32)cc1` (stereo unspecified): the IC50 was > 79 µM (inactive).

Regarding `Cc1ccc(NCC(=O)c2ccccc2)cc1`, the negative-log IC50 (pIC50) was 5.59.

With `Cc1ccnc(SCc2cc(=O)c(OC(=O)c3ccccc3)co2)n1`, the IC50 was > 79 µM (inactive).

As for `Cc1cc(C)nc(SCc2cc(=O)c(OC(=O)c3ccc(S(=O)(=O)N(C)C)cc3)co2)n1`, the IC50 is > 79 µM (inactive).

For the compound `Cc1ccccc1NCC(O)c1ccc(Cl)cc1` (stereo unspecified), the IC50 is > 79 µM (inactive).

Turning to `Cc1ccnc(SCc2cc(=O)c(OC(=O)c3ccccc3Cl)co2)n1`, the IC50 is > 79 µM (inactive).

For `Cc1ccc(N=C2C(=O)Nc3c(C)cccc32)cc1`, the IC50 result was “inactive”.

As to `CC1(C)CC2(CC(c3ccccc3F)c3cc(Cl)c(O)cc3O2)NC(=S)N1` (stereo unspecified), the IC50 was > 79 µM (inactive).

With `O=C(COC(=O)c1cccnc1)c1ccc(Cl)c(Cl)c1`, the IC50 result is “inactive”.

As for `Cc1ccccc1NCC(=O)c1ccc(Cl)cc1`, the pIC50 was 5.76.

For the compound `O=C(CNS(=O)(=O)c1ccccc1)OCC(=O)c1cccc([N+](=O)[O-])c1`, the IC50 entry is “inactive”.

Take `O=C(Oc1coc(CSc2ncccn2)cc1=O)c1ccc(Cl)c([N+](=O)[O-])c1`: the IC50 was > 79 µM (inactive).

For `Cc1ccc(OCC(=O)OCC(=O)c2cccc([N+](=O)[O-])c2)cc1C`, the negative logarithm of the IC50 (pIC50) was 4.80.

For `Cc1cccc(C2CC3(CC(C)(C)NC(=O)N3)Oc3cc(O)c(Cl)cc32)c1` (stereo unspecified), the IC50 is > 79 µM (inactive).

For `CC1(C)CC2(CC(c3ccccc3Cl)c3ccc(O)cc3O2)NC(=O)N1` (stereo unspecified), the IC50 was > 79 µM (inactive).

Turning to `O=C1Nc2ccccc2C1=Nc1ccc(Br)cc1`, the negative-log IC50 (pIC50) was 5.18.

`COc1ccc(C(=O)Oc2coc(CSc3ncccn3)cc2=O)cc1`: the IC50 was > 79 µM (inactive).

Regarding `C=CCSC1=NC2(CC(c3ccccc3)c3c(C)cc(O)cc3O2)CC(C)(C)N1` (stereo unspecified), the IC50 is > 79 µM (inactive).

For the compound `Cc1cccc(C2CC3(CC(C)(C)NC(=S)N3)Oc3cc(O)c(Cl)cc32)c1` (stereo unspecified), the IC50 entry was “inactive”.

As for `CC1(C)CC2(CC(c3ccc(F)cc3)c3ccc(O)cc3O2)NC(=S)N1` (stereo unspecified), the IC50 is > 79 µM (inactive).

On to `Cc1cccc2c1NC(=O)C2=Nc1ccc(Cl)cc1`, for which the pIC50 is 4.84.

Regarding `O=C(Oc1coc(CSc2ncccn2)cc1=O)c1ccc(S(=O)(=O)N2CCCCC2)cc1`, the IC50 is > 79 µM (inactive).

`Cc1cc(C)nc(SCc2ccc(O)c(Cl)c2)n1`: the IC50 was > 79 µM (inactive).

In the case of `O=C(Oc1coc(CSc2ccccc2)cc1=O)c1ccc(Cl)c([N+](=O)[O-])c1`, the IC50 is > 79 µM (inactive).

Consider `CSc1cccc(N=C2C(=O)Nc3ccccc32)c1`, for which the pIC50 is 5.29 and 5.05.

In the case of `CNC(=O)c1nnsc1S(=O)(=O)c1ccc(Cl)cc1`, the pIC50 is 5.00.

With `O=S(=O)(NN=Cc1ccc(-c2ccccc2Cl)o1)c1ccccc1`, the IC50 result is “inactive”.

Turning to `Cc1ccnc(SCc2cc(=O)c(OC(=O)c3ccc([N+](=O)[O-])cc3)co2)n1`, the IC50 is > 79 µM (inactive).

On to `Cc1ccc(C(=O)Oc2coc(CSc3ncccn3)cc2=O)cc1`, for which the IC50 was > 79 µM (inactive).

Take `Cc1ccccc1C1CC2(CC(C)(C)NC(=S)N2)Oc2cc(O)c(Cl)cc21` (stereo unspecified): the IC50 was > 79 µM (inactive).

On to `O=C(CNC(=O)c1ccco1)NCC(=O)OCC(=O)c1ccc(Cl)c([N+](=O)[O-])c1`, for which the pIC50 was 5.32.

Consider `Cc1ccc(C(=O)Oc2coc(CSc3ncccn3)cc2=O)cc1C`, for which the IC50 was > 79 µM (inactive).

`O=C(Nc1nc2c(F)cc(F)cc2s1)c1ccccn1`: the pIC50 was 5.34.

In the case of `CSC1=NC2(CC(c3ccccc3)c3cc(Cl)c(O)cc3O2)CC(C)(C)N1` (stereo unspecified), the IC50 is > 79 µM (inactive).

With `O=C(Oc1coc(CSc2ncccn2)cc1=O)c1ccc(-c2ccccc2)cc1`, the IC50 was > 79 µM (inactive).

In the case of `CN(C)S(=O)(=O)c1ccc(C(=O)Oc2coc(CSc3ncccn3)cc2=O)cc1`, the IC50 was > 79 µM (inactive).

For the compound `Cc1ccnc(SCc2cc(=O)c(OC(=O)c3ccc(OC(F)(F)F)cc3)co2)n1`, the IC50 is > 79 µM (inactive).

As to `Cc1ccnc(SCc2cc(=O)c(O)co2)n1`, the IC50 is > 79 µM (inactive).

On to `N#Cc1ccc(C(=O)Oc2coc(CSc3ncccn3)cc2=O)cc1`, for which the IC50 was > 79 µM (inactive).

`CCOc1ccc(N=C2C(=O)Nc3ccc(C)c(Br)c32)cc1`: the negative-log IC50 (pIC50) was 5.12.

`Cc1ccnc(SCc2cc(=O)c(OC(=O)c3cc([N+](=O)[O-])ccc3Cl)co2)n1`: the IC50 result is “inactive”.

For the compound `C=CCOc1cccc(CSc2ncccn2)c1`, the IC50 is > 79 µM (inactive).

Turning to `Cc1ccnc(SCc2cc(=O)c(OC(=O)c3ccc(F)cc3)co2)n1`, the IC50 was > 79 µM (inactive).

In the case of `Cc1cccc(C2CC3(CC(C)(C)NC(=S)N3)Oc3cc(O)cc(C)c32)c1` (stereo unspecified), the IC50 entry is “inactive”.

For the compound `CCC[N+](CC#Cc1ccccc1)(CCC)CC(=O)c1ccc(Cl)cc1`, the IC50 entry was “inactive”.

In the case of `Cc1cccc(C(=O)Oc2coc(CSc3nccc(C)n3)cc2=O)c1`, the IC50 is > 79 µM (inactive).

For the compound `O=C(Oc1coc(CSc2ncccn2)cc1=O)c1ccc(Br)cc1`, the IC50 was > 79 µM (inactive).

Consider `CC(C)(C)c1ccc(C(=O)Oc2coc(CSc3ncccn3)cc2=O)cc1`, for which the IC50 was > 79 µM (inactive).

With `CC(=O)Nc1ccc(NC(=O)CCC(=O)OCC(=O)c2ccc(C)c([N+](=O)[O-])c2)cc1`, the IC50 result is “inactive”.

As to `C=CCOc1cccc(CSc2nc(C)cc(C)n2)c1`, the IC50 is > 79 µM (inactive).

As for `CC1(C)CC2(CC(c3ccccc3Cl)c3ccc(O)cc3O2)NC(=S)N1` (stereo unspecified), the IC50 result was “inactive”.

In the case of `Cc1ccc(C(=O)CNc2ccccc2)cc1`, the negative-log IC50 (pIC50) is 5.47.

On to `Cc1cc(C)nc(SCc2cc(=O)c(OC(=O)c3ccc(C)c([N+](=O)[O-])c3)co2)n1`, for which the IC50 was > 79 µM (inactive).

Regarding `O=C(Oc1coc(CSc2ncccn2)cc1=O)c1ccc([N+](=O)[O-])cc1`, the IC50 is > 79 µM (inactive).

With `CC(C)Oc1ccc(C(=O)Oc2coc(CSc3ncccn3)cc2=O)cc1`, the IC50 is > 79 µM (inactive).

For `O=C(Oc1coc(CSc2ncccn2)cc1=O)c1ccc(F)cc1`, the IC50 was > 79 µM (inactive).

Regarding `Cc1c(O)ccc2c1OC1(CC2c2ccccc2Cl)CC(C)(C)NC(=S)N1` (stereo unspecified), the IC50 was > 79 µM (inactive).

On to `COc1ccc(C(=O)CNc2cccc(F)c2)cc1`, for which the pIC50 is 4.73.

With `Cc1ccnc(SCc2cc(=O)c(OC(=O)c3ccc(C(F)(F)F)cc3)co2)n1`, the IC50 is > 79 µM (inactive).

Take `Cc1ccc2nc(C)cc(C(=O)OCC(=O)c3ccc(Cl)c([N+](=O)[O-])c3)c2c1`: the negative-log IC50 (pIC50) is 5.11.

`O=C(CNc1ccccc1C(=O)O)c1ccccc1`: the pIC50 was 5.68.

`Cc1ccnc(SCc2cccc(O)c2)n1`: the IC50 was > 79 µM (inactive).

As to `Cc1cc(C)nc(NNS(=O)(=O)c2ccc(Cl)cc2)n1`, the negative-log IC50 (pIC50) is 4.91.

For the compound `O=C(Oc1coc(CSc2ncccn2)cc1=O)c1ccccc1`, the IC50 was > 79 µM (inactive).

Consider `Cc1ccnc(SCc2cc(=O)c(OC(=O)c3cccc([N+](=O)[O-])c3)co2)n1`, for which the IC50 was > 79 µM (inactive).
